Consider twelve molecules from patent US7541371B2, “Method for treating a motor neuron disease” (Eisai R&D Management Co., Ltd., priority 2006, dated 2009).

Structures are written as SMILES. pIC50: −log10 of the molar value.

Test [1] deals with rat motor neuron cells. Briefly: Inhibition of 5HT toxicity in rat motor neuron primary pure culture system. It is filed as cell-based. The following applies: survival three days after seeding; for Inhibition of 5HT toxicity (survival rate): antagonist added 5 to 10 min before 5HT, FIG. 2, FIG. 3. As for the experimental part: (§1) Based on the results of cell measurement, the rat motor neuron cells were diluted with the culture solution to 1.1 to 1.2×10^4 cells/mL. Greiner 4-well dishes previously coated with poly-L-ornithine/laminin were seeded with the cell suspension at 90 μL/well with a 1 mL Pipetman. […] The initial viable cell count was measured three hr after the addition of serotonin (5HT). The viable cell count was again measured three days after the cell seeding, and the survival rate was calculated based on the initial viable cell count. The cell count measurement was carried out under a phase-contrast microscope using marks previously applied on the backside of the Greiner 4-well dish as a reference.
as §1

The target of a further test is T1, serotonin 2 receptor (Mus musculus, UniProt P35363).
T1 construct: known to induce mouse head twitch behavior through a serotonin 2 receptor; from tissue; host or cells: living mouse (in vivo behaviour test)
T1 sequence (P35363 whole entry): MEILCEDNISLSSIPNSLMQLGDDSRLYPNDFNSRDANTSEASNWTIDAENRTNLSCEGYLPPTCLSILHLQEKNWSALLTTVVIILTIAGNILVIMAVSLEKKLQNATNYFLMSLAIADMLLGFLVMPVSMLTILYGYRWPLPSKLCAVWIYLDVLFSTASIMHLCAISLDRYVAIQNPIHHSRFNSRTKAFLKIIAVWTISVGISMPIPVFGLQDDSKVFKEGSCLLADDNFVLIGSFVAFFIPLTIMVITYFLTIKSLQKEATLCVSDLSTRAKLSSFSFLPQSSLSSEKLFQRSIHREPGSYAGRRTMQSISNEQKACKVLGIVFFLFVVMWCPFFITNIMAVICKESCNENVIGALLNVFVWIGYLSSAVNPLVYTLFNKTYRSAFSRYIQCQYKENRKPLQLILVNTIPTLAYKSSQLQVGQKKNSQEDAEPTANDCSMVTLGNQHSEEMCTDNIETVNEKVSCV
Briefly: Mouse head twitch behavior test (tryptamine-induced). Type of test: in vivo. The note with it: tryptamine 30 mg/kg i.v.; test compound 15 min before; FIG. 7. Here is the method:
The serotonin 2 receptor antagonist activity of test compounds was determined by a mouse head twitch behavior test. Tryptamine is a serotonin 2 receptor agonist and is known to induce mouse head twitch behavior through a serotonin 2 receptor. Accordingly, the serotonin 2 receptor antagonist activity of the test compounds can be evaluated based on the head twitch behavior by tryptamine. Tryptamine was administered intravenously to mice at 30 mg/kg, and the number of times of appearance of the head twitch within one min after the start of administration counted. The test compounds (compounds 1 and 4) were administered 15 min before the intravenous administration of tryptamine.
[^3H]8-hydroxy-dipropylaminotetralin is known to be used for the measurement of binding of test compounds to serotonin 1A receptors (European Journal of Pharmacology, 90, p. 151-153, 1983.). Further, [^3H]ketanserin is known to be used for the measurement of binding of test compounds to serotonin 2A receptors (Brian Dean and Wendy Hayes, Schizophrenia Research, 21, p. 133-139, 1996.). Furthermore, the test on mouse head twitch behavior with tryptamine is known to be used for the measurement of the serotonin 2 receptor antagonist activity of test compounds (Yamada J., et al., European Journal of Pharmacology, 140, p. 323-330, 1987; and Yamada J., et al., Neuropharmacology, 26, p. 49-53, 1987.).

The target of test [2] is T2, 5-HT1A receptor (Sus scrofa, UniProt A0A4X1UTF5).
T2 construct: to a swine hippocampus membrane fraction; from tissue; host or cells: swine hippocampus
T2 sequence (A0A4X1UTF5 1-422): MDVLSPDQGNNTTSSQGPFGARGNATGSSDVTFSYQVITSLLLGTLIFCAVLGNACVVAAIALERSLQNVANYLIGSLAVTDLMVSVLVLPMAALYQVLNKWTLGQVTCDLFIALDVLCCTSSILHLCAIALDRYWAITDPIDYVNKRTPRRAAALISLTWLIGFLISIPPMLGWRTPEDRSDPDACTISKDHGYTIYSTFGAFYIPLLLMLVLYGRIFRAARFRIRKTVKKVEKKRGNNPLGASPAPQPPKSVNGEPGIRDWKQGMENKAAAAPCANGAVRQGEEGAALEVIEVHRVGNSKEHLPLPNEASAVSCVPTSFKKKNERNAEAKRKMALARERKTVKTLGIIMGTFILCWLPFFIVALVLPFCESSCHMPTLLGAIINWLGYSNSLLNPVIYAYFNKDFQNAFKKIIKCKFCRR
As to the kind of experiment: Test on affinity for serotonin 1A receptor ([3H]MPPF, hippocampus membrane fraction). It is filed as binding, swine. The note with it: low affinity IC50 divided by high affinity IC50; not more than 1 = no intrinsic activity, not less than 2 = intrinsic activity. Here is the method:
The affinity of test compounds for the 5-HT1A receptor was determined by an experiment for inhibition of a test compound against the binding of [^3H]-4-(2′-Methoxy)phenyl-1-[2′-(N-2″-pyridinyl)-p-fluorobenzamido]ethyl-piperazine (MPPF), selectively bound to the 5-HT1A receptor, to a swine hippocampus membrane fraction. The 5-HT1A receptor, which is a G protein binding receptor, is brought to a G protein bound state upon the addition of MgCl2, and is brought to a G protein nonbound state upon the addition of guanylylimidodiphosphate (Gpp(NH)p). It is generally known that a G protein receptor agonist has stronger affinity for the G protein bound receptor depending upon the level of the intrinsic activity. Accordingly, the affinity of a test compound for the receptor in a G protein nonbound state and the affinity of the test compound for the receptor in a G protein bound state were determined and compared with each other to estimate the level of the intrinsic activity of the test compound.
The greater this value, the higher the intrinsic activity.
Swine hippocampus was homogenized in an ice-cooled 50 mM Tris hydrochloride buffer (pH 7.4; hereinafter referred to as buffer A). The suspension was centrifuged at 40,000×g for 15 min. The resultant sediment was suspended in buffer A, and the suspension was then centrifuged at 40,000×g for 15 min. The same procedure was further repeated twice or three times. The finally obtained sediment was suspended in buffer A in an amount of about ten times larger than the wet weight of the swine hippocampus to prepare a membrane fraction which was then stored at −80° C. until use.
A mixture (0.5 mL) for incubation, containing an appropriate amount of the membrane fraction, a test compound in a desired concentration, MgCl2 (final concentration: 10 mM) or Gpp(NH)p (final concentration: 1 mM), [^3H]MPPF (final concentration: 0.5 nM), dimethyl sulfoxide (final concentration: 1% (v/v)), and 50 mM Tris hydrochloride buffer (pH 7.4), was provided. Upon the addition of the membrane fraction, a reaction started, and the mixture was incubated at 37° C. for 30 min. After the incubation, the incubated mixture was suction filtered through a glass filter with a cell harvester. After washing the glass filter with ice-cooled buffer A, the radioactivity bound to the receptor was measured with a liquid scintillation counter. The binding detected in the presence of 10 μM WAY-100,635. was regarded as nonspecific binding.

Test [3] concerns the target T2, 5-HT1A receptor. The note with it: receptor in G protein bound state (MgCl2 10 mM), 0.5 nM [3H]MPPF, swine hippocampus membrane; WO 2005/108389; read-out: High affinity; cited from earlier work.
Test [4] concerns rat motor neuron cells. Briefly: Evaluation of toxicity of 5HT in rat motor neuron primary pure culture system. Type of test: cell-based. As for the experimental part:
Rat motor neuron cells were subjected to pure culture in the presence of 30 ng/mL BDNF for three days, and toxicity of serotonin (5HT) was evaluated.
The rat motor neuron primary pure culture was carried out by a method which is modification of Nishijima et al. method (Nishijima C. et al., J Neurochem 76, 383-390(2001)) by incorporating a purification method and the like in the Nishijima et al. method.
A necessary number of Greiner-4-well dishes (10 mm i.d. wells) (Greiner bio-one) were provided, and 0.15 M sodium borate buffer (pH 8.3) containing 0.5 mg/mL poly-L-ornithine was added at 100 μL/well followed by standing at 4° C. overnight. Ornithine was removed by suction, the residue was washed three times with PBS(−), and L-15 (CO2) containing 10 μg/mL laminin (Gibco-BRL) was spread at 50 μL/well. […]
Wistar pregnant rats (fifteen days pregnant) (Tokyo Laboratory Animals Science Co., Ltd.) were etherized and were then sacrificed by cervical dislocation. […] One hr after the start of the culture, serotonin (serotonin creatinine sulfate complex, Sigma) or glutamate (Sigma) was added thereto, and, three hr after that, the initial viable cell count was measured. The viable cell count was again measured three days after the cell seeding, and the survival rate was calculated based on the initial viable cell count. […]

For `OC(c1ccccc1)C1CCN(CCc2ccccc2)CC1` (stereo not shown) [MDL-11939], the “Inhibition of 5HT toxicity (survival rate)” value (from here on “Inhibition of 5HT toxicity”) with rat motor neuron cells [1] is reported as “inhibited”.

As for `CNC(=O)Cc1ccc2ccn(C3CCN(CCc4ccccc4F)CC3)c2c1` [Compound 1, N-methyl-{1-[1-(2-fluorophenethyl)piperidin-4-yl]-1H-indol-6-yl}acetamide], the “Concentration at which 5HT excitotoxicity is inhibited” value with rat motor neuron cells [1] (compound added 5 to 10 min before 5HT, FIG. 5, FIG. 6) is “not less than 0.1 nM”. Also, the “Serotonin 2A receptor antagonist activity (head twitch by tryptamine)” value on serotonin 2 receptor was “excellent serotonin 2A receptor antagonist activity”.

As to `COc1ccc2c(C)noc2c1CCN1CCC(n2ccc3ccc(C(N)=O)cc32)CC1` [Compound 14, 1-{1-[2-(6-methoxy-3-methylbenzo[d]isoxazol-7-yl)ethyl]piperidin-4-yl}-1H-indole-6-carboxamide], the L/H ratio at 5-HT1A receptor [2] came to 1.6.

On to `COc1cc2oc(C)nc2cc1CCN1CCC(n2ccc3ccc(C(N)=O)cc32)CC1` [Compound 11, 1-{1-[2-(6-methoxy-2-methylbenzoxazol-5-yl)ethyl]piperidin-4-yl}-1H-indole-6-carboxamide], for which, on 5-HT1A receptor [2], the L/H ratio came to 0.9.

Regarding `COc1cc2c(cc1CCN1CCC(n3ccc4ccc(C(N)=O)cc43)CC1)OCCO2` [Compound 15, 1-{1-[2-(7-methoxy-2,3-dihydrobenzo[1,4]dioxin-6-yl)ethyl]piperidin-4-yl}-1H-indole-6-carboxamide], the L/H ratio at 5-HT1A receptor [2] is given as 0.9.

For the molecule `CNC(=O)c1ccc2ccn(C3CCN(CCc4c(OC)ccc5c4OC(C)(C)CC5=O)CC3)c2c1` [Compound 9, 1-{1-[2-(7-methoxy-2,2-dimethyl-4-oxochroman-8-yl)ethyl]piperidin-4-yl}-N-methyl-1H-indole-6-carboxamide], the L/H ratio at 5-HT1A receptor [2] is on record as 0.8. Further, on 5-HT1A receptor [3], the pIC50 was 9.70.

Regarding `NCCOB(c1ccccc1)c1ccccc1` [Compound 2-APB], in the test on rat motor neuron cells [1], the “Inhibition of 5HT toxicity” value is “inhibition of 5HT excitotoxicity”.

In the case of `COc1ccc2c(c1CCN1CCC(n3ccc4ccc(C(N)=O)cc43)CC1)OC(C)(C)CC2=O` [Compound 10, 1-{1-[2-(7-methoxy-2,2-dimethyl-4-oxochroman-8-yl)ethyl]piperidin-4-yl}-1H-indole-6-carboxamide], at 5-HT1A receptor [2], the L/H ratio is listed as 0.8. At 5-HT1A receptor [3], the pIC50 is 9.89.

As for `COc1cc2onc(C)c2cc1CCN1CCC(n2ccc3ccc(C(N)=O)cc32)CC1` [Compound 13, 1-{1-[2-(6-methoxy-3-methylbenzo[d]isoxazol-5-yl)ethyl]piperidin-4-yl}-1H-indole-6-carboxamide], at 5-HT1A receptor [2], the L/H ratio was 1.3.

As to `COc1ccccc1N1CCN(CCCCN2C(=O)c3ccccc3C2=O)CC1` [NAN-190], the “Inhibition of 5HT toxicity” value in the test with rat motor neuron cells [1] is on record as “inhibited”.

Take `NCCc1c[nH]c2ccc(O)cc12` [Compound 5HT, serotonin]: the “5HT toxicity compared with glutamate toxicity” value with rat motor neuron cells [4] (serum-free culture solution, FIG. 1B) is given as “comparable with glutamate toxicity”. Further, the “Toxicity of 5HT (survival rate of motor neuron cells)” value in the test on rat motor neuron cells [4] (three days culture, 30 ng/mL BDNF, FIG. 1A) is “showed toxicity in a concentration-dependent manner”.

Regarding `COc1ccc2nc(C)oc2c1CCN1CCC(n2ccc3ccc(C(N)=O)cc32)CC1` [Compound 12, 1-{1-[2-(6-methoxy-2-methylbenzoxazol-7-yl)ethyl]piperidin-4-yl}-1H-indole-6-carboxamide], the L/H ratio on 5-HT1A receptor [2] is on record as 0.7.
